The results in this text go back to patent publication JP2009132645A, “アシル化ハイドロキノン配糖体及びそれを含有する皮膚外用剤” (Pola Chemical Industries Inc, priority 2007, dated 2009).

Each structure is given as a SMILES string. Bounds are passed on as bounds.

The nature of this data set: Cytotoxicity in normal human epidermal melanocytes (trypan blue). The class given is cell-based. To be noted: 2 days culture, 0.5% trypan blue, concentration not given, read-out: cytotoxicity (judgement by cell death rate).

Turning to `CCCCCCCCCCC(=O)OC[C@H]1O[C@@H](Oc2ccc(O)cc2)[C@H](O)[C@@H](O)[C@@H]1O` [比較化合物1, 6−O−ウンデカノイルアルブチン], the cytotoxicity at 48 h was greater than 50%.
